Common to all, as to format: functional
Test [1] relates to Mus musculus. Description: In vivo anti-inflammatory activity determined by inhibition of oxazolone-induced allergic contact dermatitis (ACD) in mouse up on tropical application. Set-up: concentration or dose not given beside the values.
Test [2] concerns Mus musculus. Description: In vivo antiinflammatory activity of 0.4 uM concentration of compound was determined by inhibition of oxazolone-induced allergic contact dermatitis (ACD) in mouse up on tropical application.
The subject of test [3] is Mus musculus. The experiment in a line: In vivo antiinflammatory activity of 4 uM concentration of compound was determined by inhibition of oxazolone-induced allergic contact dermatitis (ACD) in mouse up on tropical application.
The subject of test [4] is Mus musculus. Description: In vivo antiinflammatory activity of 40 uM concentration of compound was determined by inhibition of oxazolone-induced allergic contact dermatitis (ACD) in mouse up on tropical application.
The test system of test [5] is Sus scrofa. The experiment in a line: In vivo antiinflammatory activity of 130 uM concentration of compound was determined by inhibition of oxazolone-induced allergic contact dermatitis (ACD) in pig up on tropical application.
The test system of test [6] is Sus scrofa. The experiment in a line: In vivo antiinflammatory activity of 40 uM concentration of compound was determined by inhibition of oxazolone-induced allergic contact dermatitis (ACD) in pig up on tropical application.
The test system of test [7] is Mus musculus. Description: In vivo antiinflammatory activity of 0.04 uM concentration of compound was determined by inhibition of oxazolone-induced allergic contact dermatitis (ACD) in mouse up on tropical application.
The test system of test [8] is Mus musculus. Description: In vivo antiinflammatory activity of compound was determined by inhibition of oxazolone-induced allergic contact dermatitis (ACD) in mouse up on tropical application.
Test [9] concerns Sus scrofa. Description: In vivo antiinflammatory activity of 400 uM concentration of compound was determined by inhibition of oxazolone-induced allergic contact dermatitis (ACD) in pig up on tropical application.

In the case of `CC(NCc1ccccc1)[C@H]1CC[C@]2(C)[C@@H]1CC[C@H]1[C@H]2CC[C@H]2C(C)(C)[C@@H](O)CC[C@]12C` (stereo in doubt; 4bB), the Inhibition in [1] came to 15%.
On the same count and under the same terms, under `CC(NCCc1ccc(S(N)(=O)=O)cc1)[C@H]1CC[C@]2(C)[C@@H]1CC[C@H]1[C@H]2CC[C@H]2C(C)(C)[C@@H](O)CC[C@]12C` (stereo not given in full) stands 16%.
In [1], `C[C@H](N)[C@H]1CC[C@]2(C)[C@@H]1CC[C@H]1[C@H]2CC[C@H]2C(C)(C)[C@@H](O)CC[C@]12C` (stereo in doubt; 5A) gave an Inhibition of 38%.
`C=C(CCc1ccccc1)[C@H]1CC[C@]2(C)[C@@H]1CC[C@H]1[C@H]2CC[C@H]2C(C)(C)[C@@H](O)CC[C@]12C` had an Inhibition in test [1] of 36%.
In test [1], `CC(NCc1nc2ccccc2[nH]1)[C@H]1CC[C@]2(C)[C@@H]1CC[C@H]1[C@H]2CC[C@H]2C(C)(C)[C@@H](O)CC[C@]12C` (stereo not given in full) yielded an Inhibition of 27%.
The compound `C[C@H](NC(=O)/C=C/c1ccccc1)[C@H]1CC[C@]2(C)[C@@H]1CC[C@H]1[C@H]2CC[C@H]2C(C)(C)[C@@H](O)CC[C@]12C` had an Inhibition in test [1] of 11%.
In the case of `C=C(C/C=C/C(C)(C)O)[C@@H]1CC[C@]2(C)[C@@H]1CC[C@@H]1[C@@]3(C)CC[C@H](O)C(C)(C)[C@@H]3CC[C@]12C`, the Inhibition in [2] worked out at 6%; in [3], 37%; in [4], 65%; in [5], 43%; in test [6], 28%.
Consider `CC(NCCc1ccccc1-n1ccnc1)[C@H]1CC[C@]2(C)[C@@H]1CC[C@H]1[C@H]2CC[C@H]2C(C)(C)[C@@H](O)CC[C@]12C` (stereo not given in full), for which the Inhibition in test [1] was 13%.
In test [1], `CC1(C)[C@@H](O)CC[C@]2(C)[C@H]3CC[C@@H]4[C@@H](C(O)CCc5ccccc5)CC[C@@]4(C)[C@@H]3CC[C@@H]12` (stereo in doubt; 11A) came in with an Inhibition of 12%.
In test [1], `CC(NCC(=O)OC(C)(C)C)[C@H]1CC[C@]2(C)[C@@H]1CC[C@H]1[C@H]2CC[C@H]2C(C)(C)[C@@H](O)CC[C@]12C` (stereo in doubt; 4dB) displayed an Inhibition of 21%.
Same read-out and setting: under `CCCCNC(C)[C@H]1CC[C@]2(C)[C@@H]1CC[C@H]1[C@H]2CC[C@H]2C(C)(C)[C@@H](O)CC[C@]12C` (stereo in doubt; 4aB) stands 28%; under `CC1(C)[C@@H](O)CC[C@]2(C)[C@H]3CC[C@@H]4[C@@H](C(CCc5ccccc5)NCc5ccccc5)CC[C@@]4(C)[C@@H]3CC[C@@H]12` (stereo in doubt; 12A), 22%.
In turn, `CC(=O)[C@H]1CC[C@]2(C)[C@@H]1CC[C@@H]1[C@@]3(C)CC[C@H](O)C(C)(C)[C@@H]3CC[C@]12C` gave an Inhibition in test [1] of 12%.
Turning to `CC(CCc1ccccc1)[C@H]1CC[C@]2(C)[C@@H]1CC[C@H]1[C@H]2CC[C@H]2C(C)(C)[C@@H](O)CC[C@]12C` (stereo in doubt; 15A), the Inhibition in test [1] is recorded as 30%.
`CC1(C)[C@@H](O)CC[C@]2(C)[C@H]3CC[C@@H]4[C@@H](C(CCc5ccccc5)NCc5ccccc5)CC[C@@]4(C)[C@@H]3CC[C@@H]12` (stereo in doubt; 12B) came in with an Inhibition in [1] of 15%.
`CC(NCc1ccccc1)[C@H]1CC[C@]2(C)[C@@H]1CC[C@H]1[C@H]2CC[C@H]2C(C)(C)[C@@H](O)CC[C@]12C` (stereo in doubt; 4bA) returned an Inhibition in test [1] of 28%.
For the compound `C[C@@H]1C[C@H]2[C@@H]3CCC4=CC(=O)C=C[C@]4(C)[C@@]3(F)[C@@H](O)C[C@]2(C)[C@@]1(O)C(=O)CO` [DEXAMETHASONE], the Inhibition in test [7] is 16%; in test [2], 41%; in test [4], 35%; in test [8], 42%; in test [5], 35%; in [6] it was 20%. This compound had an Inhibition in [9] of 32%.
In [1], `CC(NCC(=O)OC(C)(C)C)[C@H]1CC[C@]2(C)[C@@H]1CC[C@H]1[C@H]2CC[C@H]2C(C)(C)[C@@H](O)CC[C@]12C` (stereo in doubt; 4dA) registered an Inhibition of 31%.
For the compound `CCCCNC(C)[C@H]1CC[C@]2(C)[C@@H]1CC[C@H]1[C@H]2CC[C@H]2C(C)(C)[C@@H](O)CC[C@]12C` (stereo in doubt; 4aA), in test [1], the Inhibition was 30%.
In [1], `CC1(C)[C@@H](O)CC[C@]2(C)[C@H]3CC[C@@H]4[C@@H](C(N)CCc5ccccc5)CC[C@@]4(C)[C@@H]3CC[C@@H]12` (stereo in doubt; 13B) gave an Inhibition of 6%.
The same measure, in the same setting: under `C[C@H](N)[C@H]1CC[C@]2(C)[C@@H]1CC[C@H]1[C@H]2CC[C@H]2C(C)(C)[C@@H](O)CC[C@]12C` (stereo in doubt; 5B) stands 41%.
On the same count and under the same terms, under `CC(C)CCC(=O)N[C@@H](C)[C@H]1CC[C@]2(C)[C@@H]1CC[C@H]1[C@H]2CC[C@H]2C(C)(C)[C@@H](O)CC[C@]12C` stands 33%; under `CC1(C)[C@@H](O)CC[C@]2(C)[C@H]3CC[C@@H]4[C@@H](C(O)CCc5ccccc5)CC[C@@]4(C)[C@@H]3CC[C@@H]12` (stereo in doubt; 11B), 14%; under `CC(CCc1ccccc1)[C@H]1CC[C@]2(C)[C@@H]1CC[C@H]1[C@H]2CC[C@H]2C(C)(C)[C@@H](O)CC[C@]12C` (stereo in doubt; 15B), 29%.
The same measure, in the same setting: in the case of `CC1(C)[C@@H](O)CC[C@]2(C)[C@H]3CC[C@@H]4[C@@H](C(N)CCc5ccccc5)CC[C@@]4(C)[C@@H]3CC[C@@H]12` (stereo in doubt; 13A) it was 30%.

The Inhibition is the drop in the measured response relative to a control, in per cent.
